# Laboratory results published in US20230346743A1, “COMBINATION CANCER THERAPIES” (The Board of Regents of the University of Oklahoma, priority 2018, published 2023).
# What was measured:
# Cervical Cancer = experiment: Dose reduction index at various fold effects in cervical cancer; assay type: cell-based, human; settings: cell line not named
# Source text: Combination Indices (CI's) were derived to determine the level of synergy using the Chow and Talalay method. […] The Dose Reduction Indices (DRIs) were derived to determine the level of reduction for one drug that could be allowed by addition of the second drug at various fold effects (Fas) of the combination treatment (Table 16).
# [1] = Toxicity in the MESOV mouse model (body weight, ascites, kidney and liver histology); assay type: in vivo; settings: mouse, in vivo, ip
# Method: Four-week-old female athymic nude mice (NCr-Foxn1^nu) were obtained from Taconic Biosciences under an approved Institutional Animal Care and Use Committee (IACUC) protocol. Mice were acclimatized for two weeks, fed with a standard diet and ear tagged during the acclimatization period. The timing to tumor development after intraperitoneal injection with various amounts of MESOV cells was determined in a pilot study prior. In the intervention experiment, 6-week-old mice were injected with 20 million MESOV human ovarian cancer cells in their intraperitoneal region. Drug treatment was initiated 4 weeks after the injection of cancer cells. Mice were randomized to four treatment groups before the start of treatment based on their body weight. There was no significant (one-way ANOVA, p >0.999) difference in body weight between groups at the start of treatment. Twelve mice were allocated to each group based on the power analysis performed while designing experiment. The sample size was determined to provide over 80% power to detect a 915 mm^3 difference in tumor volume between PRIMA-1^MET treatment alone and the drug combination treatment using a two-sided 0.05 level t-test. SHetA2 was administered by gavage at 60 mg/kg in 30% Kolliphor HS15 (Sigma). Controls were gavaged with Kolliphor HS15 (30% in water). PRIMA-1^MET (10 mg/kg) was dissolved in phosphate buffered saline and injected into the peritoneum of mice every other day. Initially SHetA2 dosing was administered every day for two weeks in SHetA2 alone and drug combination groups, and then switched to every other day for the next three weeks due to the stress caused to the mice by daily gavage. Oral gavaging was performed with sterile disposable plastic feeding tubes 20 ga × 38 mm (Instech Laboratories, Inc., Plymouth Meeting, PA, USA). Three mice in the drug combination group died after two weeks of drug treatment due to gavaging incidents. Body weights were recorded and animal health was monitored weekly. After the end of drug intervention period, all mice were euthanized by CO2 asphyxiation followed by exsanguination, their tumors and other vital organs were collected for further analysis. After measuring the total tumor weight, a portion of the tumors were snap frozen in liquid nitrogen and another portion was formalin fixed. The formalin fixed tissue samples were paraffin embedded, sectioned and stained with hematoxylin and eosins for histology studies. An experienced pathologist reviewed blinded histology slides for kidney and liver toxicity.
# p53 [2] = experiment: p53 cellular localization (immunofluorescence, Western blots of fractions) in ovarian cancer cell lines; assay type: cell-based, human; settings: A2780 and OV90 ovarian cancer cell lines
# Method: (§1) Cytoplasmic and nuclear protein fractions were isolated from cultures using NE-PER Nuclear and Cytoplasmic Extraction Reagents (ThermoFisher, Waltham, MA, USA) and the Mitochondria/Cytosol Fractionation Kit (ThermoFisher, Waltham, MA, USA) and protein concentrations determined with BCA reagent (ThermoFisher, Waltham, MA, USA).
# (§2) Proteins were extracted from cell cultures using M-PER mammalian protein extraction reagent (ThermoFisher, Waltham, MA, USA) and volumes corresponding to 30 µg determined with BCA reagent (ThermoFisher, Waltham, MA, USA) were electrophoresed into a SDS-PAGE gel and transferred to PVDF membranes. Membranes were blocked (5% dry skim milk powder in TBST buffer) for at least 1 h or overnight, washed thrice with TBST and then incubated with primary antibody: p53 DO-1, β-actin, histone H3, GAPDH (Santa Cruz Biotechnology, Dallas, TX, USA) and mortalin, Tom20, V5 tag antibodies, p21, PARP, SLC7A11, caspase 3 (Cell Signaling Technology, Danvers, MA, USA) for at least 1 h or overnight. After three washes, membranes were incubated with anti-mouse HRP conjugated (Santa Cruz Biotechnology, Dallas, TX, USA) or anti-Rabbit HRP conjugated (Cell Signaling Technology, Danvers, MA, USA) for 40 min. Membranes then were washed and developed with ECL reagents (BioRad, Hercules, CA, USA). Bands were imaged and quantified (ChemiDoc imaging system with Image Lab Software/BioRad). […]
# p53 [3] = experiment: p53 cellular localization in hFTSECs; assay type: cell-based, human; settings: 24 h
# Method: as §1, §2
# TP21 gene = experiment: qRT-PCR of TP21 in SKOV3 cells; assay type: cell-based, human; settings: SKOV3 parental (p53 null) and R273H m-p53 cells; SHetA2 10 µM, PRIMA-1 20 µM, 16 h
compound,measurement,setting,value
CC1(C)CC(C)(C)c2cc(NC(=S)Nc3ccc([N+](=O)[O-])cc3)ccc2S1 [SHetA2],SHetA2 Dose,Cervical Cancer; Fold Effect (Fa) 0.05,5.44
same,SHetA2 Dose,Cervical Cancer; Fold Effect (Fa) 0.75,8.23
same,SHetA2 Dose,Cervical Cancer; Fold Effect (Fa) 0.90,12.43
same,SHetA2 Dose,Cervical Cancer; Fold Effect (Fa) 0.95,16.47
same,Effects on body weight or ascites (abdominal size),[1],no significant effects on body weight or ascites
same,Kidney or liver toxicity (H & E histology),[1],did not cause kidney or liver toxicity
same,p53 in nuclei (immunofluorescent imaging),p53 [2],dose-dependent elevation of both wild type and mutant p53 in nuclei
same,p53 cellular localization,p53 [3],minimal effects on p53 cellular localization
same,TP21 transcription (qRT-PCR),TP21 gene,induced TP21 transcription
